# According to patent publication US12180223B2 (Boehringer Ingelheim International GmbH, priority 2021, dated 2024):
# Key:
# [1] = Assay C: Hepatocyte clearance; assay type: in vitro ADME, human; settings: compounds of the invention; hepatocyte suspension, 5% species serum, test compound 1 μM, six hours
# Method: Evaluation of Hepatocyte Clearance Assay C: Hepatocyte Clearance
# The metabolic degradation of the test compound is assayed in a hepatocyte suspension. Hepatocytes (cryopreserved) are incubated in Dulbecco's modified eagle medium (supplemented with 3.5 μg glucagon/500 mL, 2.5 mg insulin/500 mL and 3.75 mg/500 mL hydrocortisone) containing 5% species serum.
# The cells are incubated for six hours (incubator, orbital shaker) and samples (25 μl) are taken at 0, 0.5, 1, 2, 4 and 6 hours. Samples are transferred into acetonitrile and pelleted by centrifugation (5 min). The supernatant is transferred to a new 96-deepwell plate, evaporated under nitrogen and resuspended.
# Decline of parent compound is analyzed by HPLC-MS/MS
# CLint is calculated as follows CL_[…]=Dose/AUC=(C0/CD)/(AUD+clast/k)×1000/60. C0: initial concentration in the incubation [μM], CD: cell density of vital cells [10e6 cells/mL], AUD: area under the data [μM×h], clast: concentration of last data point [μM], k: slope of the regression line for parent decline [h−1].
# The calculated in vitro hepatic intrinsic clearance can be scaled up to the intrinsic in vivo hepatic Clearance and used to predict hepatic in vivo blood clearance (CL) by the use of a liver model (well stirred model).
# [2] = target: T1, human TRPA1 ion channel (Homo sapiens, UniProt O75762); assay: Assay A: TRPA1 assay (FLIPR calcium, AITC agonism, HEK293 over-expressing human TRPA1); assay type: cell-based; settings: read-out: hTRPA1 IC50
# T1 construct: host or cells: HEK293
# T1 sequence (O75762 whole entry): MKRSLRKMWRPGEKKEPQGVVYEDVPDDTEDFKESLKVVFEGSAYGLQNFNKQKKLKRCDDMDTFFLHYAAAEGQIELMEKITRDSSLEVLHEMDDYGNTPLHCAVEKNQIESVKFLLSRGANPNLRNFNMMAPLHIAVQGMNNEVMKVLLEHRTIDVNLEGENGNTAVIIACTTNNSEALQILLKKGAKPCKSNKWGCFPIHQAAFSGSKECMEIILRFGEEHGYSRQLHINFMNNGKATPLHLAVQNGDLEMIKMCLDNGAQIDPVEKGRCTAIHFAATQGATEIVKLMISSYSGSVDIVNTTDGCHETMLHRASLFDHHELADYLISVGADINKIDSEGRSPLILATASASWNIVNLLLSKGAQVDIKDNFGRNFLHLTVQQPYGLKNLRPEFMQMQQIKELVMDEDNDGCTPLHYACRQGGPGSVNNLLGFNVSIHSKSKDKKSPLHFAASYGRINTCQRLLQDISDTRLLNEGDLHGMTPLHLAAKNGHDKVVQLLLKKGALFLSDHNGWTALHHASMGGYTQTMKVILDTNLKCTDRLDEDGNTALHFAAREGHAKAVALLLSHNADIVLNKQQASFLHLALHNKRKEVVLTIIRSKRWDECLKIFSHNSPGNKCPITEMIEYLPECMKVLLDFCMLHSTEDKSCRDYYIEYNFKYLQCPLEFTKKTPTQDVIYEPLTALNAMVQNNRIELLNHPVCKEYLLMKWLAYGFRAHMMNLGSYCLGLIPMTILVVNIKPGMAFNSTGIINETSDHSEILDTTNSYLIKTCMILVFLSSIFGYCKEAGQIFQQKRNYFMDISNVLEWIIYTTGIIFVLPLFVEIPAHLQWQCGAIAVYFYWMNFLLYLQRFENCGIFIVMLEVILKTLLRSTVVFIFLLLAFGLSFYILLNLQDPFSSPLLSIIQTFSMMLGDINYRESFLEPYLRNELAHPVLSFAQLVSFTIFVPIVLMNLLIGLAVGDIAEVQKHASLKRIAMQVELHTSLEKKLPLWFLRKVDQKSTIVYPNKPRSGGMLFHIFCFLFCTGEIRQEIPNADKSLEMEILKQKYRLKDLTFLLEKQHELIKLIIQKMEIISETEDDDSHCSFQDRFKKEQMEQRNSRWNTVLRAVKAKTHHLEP
# Method: A human HEK293 cell line over-expressing the human TRPA1 ion channel (Perkin Elmer, Product No. AX-004-PCL) is used as a test system for compound efficacy and potency. Compound activity is determined by measuring the effect of compounds on intracellular calcium concentration induced by AITC (Allylisothiocyanate) agonism in a FLIPRtetra system (Molecular Devices).
# The cells are obtained as frozen cells in cryo-vials and stored until use at −150° C. Cells are grown in culture medium (MEM/EBSS medium with 10% FCS and 0.4 mg/ML Geneticin). […] For sub-culturing cells are detached from flasks by Versene. At the day before the assay, cells are detached, washed twice with medium (MEM/EBSS medium with 10% FCS) and 20000 cells in 20 μl/well are seeded to Poly D-Lysin biocoated 384-well plates (black, clear bottom, Cat. 356697) from Corning. Plates are incubated for 24 hours at 37° C./5% CO2 before use in the assay.
# The test compounds are dissolved in 100% DMSO at a concentration of 10 mM and in a first step diluted in DMSO to a concentration of 5 mM, followed by serial dilution steps in 100% DMSO. Dilution factor and number of dilution steps may vary according to needs. Typically 8 different concentrations by 1:5 dilutions are prepared, further intermediate dilutions (1:20) of the substances are carried out with HBSS/HEPES buffer (1×HEPES, Cat. 14065 from Gibco, 20 mM HEPES, Cat. 83264 from SIGMA, 0.1% BSA Cat. 11926 from Invitrogen, pH 7.4
# At the assay day cells are washed 3× with assay puffer, 20 μL buffer remaining in the wells after washing. 10 μL Ca6 kit (Cat. R8191 MolecularDevices) loading buffer in HBSS/HEPES is added to the cells and the plates are incubated with lid for 120 minutes at 37°/5% CO2. 10 μL of compound or controls in HBSS/HEPES buffer/5% DMSO from the intermediate dilution plate are carefully added to the wells. […] Finally 10 μL of the agonist AITC 50 μM dissolved in HBSS/HEPES buffer/0.05% DMSO (final concentration 10 μM) is added to the wells followed by an additional read on the FLIPRtetra device for 10 minutes. The area under the signal curve (AUC) after AITC addition is used for IC50/% inhibition calculations
# Data Evaluation and Calculation:
# Each assay microtiter plate contains wells with vehicle (1% DMSO) controls instead of compound as controls for AITC induced luminescence (100% CTL; high controls) and wells with vehicle controls without AITC as controls for non-specific changes in luminescence (0% CTL; low controls).
# The analysis of the data is performed by the calculation of the area under signal curve of the individual wells. Based on this values the % value for the measurement of each substance concentration is calculated (AUC(sample)−AUC(low))*100/(AUC(high)−AUC(low)) using MegaLab software (in house development). The IC50 values are calculated from the % control values using MegaLab software. Calculation: [y=(a−d)/(1+(x/c)^b)+d], a=low value, d=high value; x=conc M; c=IC50 M; b=hill; y=% ctrl
# [3] = Assay B: Microsomal clearance; assay type: in vitro ADME, human; settings: compounds of the invention; pooled liver microsomes 1 mg/ml, test compound 1 μM, NADPH, 37° C.
# Method: Evaluation of Microsomal Clearance Assay B: Microsomal Clearance:
# The metabolic degradation of the test compound is assayed at 37° C. with pooled liver microsomes. The final incubation volume of 100 μl per time point contains TRIS buffer pH 7.6 at RT (0.1 M), magnesium chloride (5 mM), microsomal protein (1 mg/ml) and the test compound at a final concentration of 1 μM.
# Following a short preincubation period at 37° C., the reactions are initiated by addition of beta-nicotinamide adenine dinucleotide phosphate, reduced form (NADPH, 1 mM) and terminated by transferring an aliquot into solvent after different time points (0, 5, 15, 30, 60 min). Additionally, the NADPH-independent degradation is monitored in incubations without NADPH, terminated at the last time point. The [%] remaining test compound after NADPH independent incubation is reflected by the parameter c(control) (metabolic stability). The quenched incubations are pelleted by centrifugation (10000 g, 5 min). An aliquot of the supernatant is assayed by LC-MS/MS for the amount of parent compound. The half-life (t½ INVITRO) is determined by the slope of the semilogarithmic plot of the concentration-time profile.
Structure (SMILES),human Hepatocytes [1],IC50 [2],human LM [3]
"NC(=O)c1csc2ncn(Cc3nc(C[C@H](O)c4ccc(Cl)cc4)no3)c(=O)c12 [Example 1, 3-({3-[(2S)-2-(4-chlorophenyl)-2-hydroxyethyl]-1,2,4-oxadiazol-5-yl}methyl)-4-oxo-3H,4H-thieno[2,3-d]pyrimidine-5-carboxamide]",22 % Qh,29 nM,<23 % Qh
NC(=O)c1csc2ncn(Cc3nc(C[C@H](O)c4cc5ccc(F)cc5s4)no3)c(=O)c12 [Example 2],36 % Qh,7 nM,43 % Qh
NC(=O)c1csc2ncn(Cc3nc(C[C@H](O)c4cc5ccccc5s4)no3)c(=O)c12 [Example 3],,9 nM,39 % Qh
NC(=O)c1csc2ncn(Cc3nc(C[C@H](O)c4cc5cc(Cl)ccc5o4)no3)c(=O)c12 [Example 4],34 % Qh,9 nM,34 % Qh
NC(=O)c1csc2ncn(Cc3nc(C[C@H](O)c4ccc(I)cc4)no3)c(=O)c12 [Example 5],24 % Qh,12 nM,<23 % Qh
NC(=O)c1csc2ncn(Cc3nc(C[C@H](O)c4cc5cc(F)ccc5o4)no3)c(=O)c12 [Example 6],22 % Qh,12 nM,23 % Qh
Cc1ccc([C@@H](O)Cc2noc(Cn3cnc4scc(C(N)=O)c4c3=O)n2)cc1 [Example 7],26 % Qh,22 nM,
NC(=O)c1csc2ncn(Cc3nc(C[C@H](O)c4ccc(F)cc4)no3)c(=O)c12 [Example 8],13 % Qh,57 nM,<23 % Qh
NC(=O)c1csc2ncn(Cc3nc(C[C@H](O)c4ccc(Cl)s4)no3)c(=O)c12 [Example 9],61 % Qh,77 nM,27 % Qh
COc1ccc([C@@H](O)Cc2noc(Cn3cnc4scc(C(N)=O)c4c3=O)n2)cc1 [Example 10],19 % Qh,87 nM,<23 % Qh
